Laboratory results published in ChEMBL document CHEMBL1128098, “Synthesis and serotonin receptor binding properties of 5-substituted 3-(1,2,5,6-tetrahydropyridin-3-yl) indoles” (Bioorg Med Chem Lett, 1995).

How the values were obtained:
[1] = biological target: T1, 5-hydroxytryptamine receptor 1A (Rattus norvegicus, UniProt P19327); test: Binding affinity to 5-hydroxytryptamine 1A receptor using [3H]8-OH-DPAT radioligand assay.
T1 sequence (P19327 whole entry): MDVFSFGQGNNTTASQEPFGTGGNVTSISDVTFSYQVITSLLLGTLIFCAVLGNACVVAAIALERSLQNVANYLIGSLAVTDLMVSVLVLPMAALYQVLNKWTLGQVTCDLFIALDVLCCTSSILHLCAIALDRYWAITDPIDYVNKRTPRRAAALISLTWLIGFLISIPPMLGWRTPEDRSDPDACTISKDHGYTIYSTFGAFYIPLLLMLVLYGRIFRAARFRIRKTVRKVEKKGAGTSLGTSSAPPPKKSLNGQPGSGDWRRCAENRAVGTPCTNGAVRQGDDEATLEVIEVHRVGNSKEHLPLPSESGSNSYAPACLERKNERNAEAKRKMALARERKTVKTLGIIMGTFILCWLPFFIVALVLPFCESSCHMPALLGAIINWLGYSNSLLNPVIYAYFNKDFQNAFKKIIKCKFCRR

[2] = biological target: Serotonin 2 (5-HT2) receptor (Rattus norvegicus, UniProt P30994+P08909+P14842); test: Binding affinity to 5-hydroxytryptamine 2 receptor using [3H]ketanserin radioligand assay.; type: protein assay

SMILES | Ki [1] | Ki [2]
CCCN1CCC=C(c2c[nH]c3ccc(C(=O)OC)cc23)C1 | 214 nM | > 50000 nM
CCCN1CCC=C(c2c[nH]c3ccc(C#N)cc23)C1 | 303 nM | 958 nM
CCCN1CCC=C(c2c[nH]c3ccccc23)C1 | 556 nM | 146 nM
COc1ccc2[nH]cc(C3=CCCN(C)C3)c2c1 | 79 nM | 716 nM
CCCN1CCC=C(c2c[nH]c3ccc(Br)cc23)C1 | 192 nM | 139 nM
COC(=O)c1ccc2[nH]cc(C3=CCCN(C)C3)c2c1 | 102 nM | 5360 nM
CC(=O)Nc1ccc2[nH]cc(C3=CCCN(C)C3)c2c1 | 16 nM | 14536 nM
CN1CCC=C(c2c[nH]c3ccc(Br)cc23)C1 | 50 nM | 82 nM
CN1CCC=C(c2c[nH]c3ccc(C(N)=O)cc23)C1 | 3.8 nM | > 10000 nM
CCN1CCC=C(c2c[nH]c3ccc(Cl)cc23)C1 | 47 nM | 150 nM
Cc1ccc2[nH]cc(C3=CCCN(C)C3)c2c1 | 72 nM | 194 nM
CN1CCC=C(c2c[nH]c3ccc(O)cc23)C1 | 145 nM | 237 nM
CC(=O)c1ccc2[nH]cc(C3=CCCN(C)C3)c2c1 | 91 nM | 3383 nM
COc1ccc2[nH]cc(C3=CCCNC3)c2c1 | 5.7 nM | 230 nM
CN1CCC=C(c2c[nH]c3ccc(C#N)cc23)C1 | 129 nM | 1035 nM
CCN1CCC=C(c2c[nH]c3ccc(C#N)cc23)C1 | 186 nM | 1360 nM
CCCN1CCC=C(c2c[nH]c3ccc(OC)cc23)C1 | 226 nM | 1070 nM
CN1CCC=C(c2c[nH]c3ccc(F)cc23)C1 | 124 nM | 43 nM
CN1CCC=C(c2c[nH]c3ccc(Cl)cc23)C1 | 113 nM | 107 nM
CCN1CCC=C(c2c[nH]c3ccc(F)cc23)C1 | 142 nM | 67 nM
CCCN1CCC=C(c2c[nH]c3ccc(NC(C)=O)cc23)C1 | 205 nM | > 50000 nM
CCCN1CCC=C(c2c[nH]c3ccc(C(N)=O)cc23)C1 | 4.7 nM | 19152 nM
CN1CC[C@@H]2CCc3[nH]c4ccccc4c3[C@H]2C1 | 2360 nM | 325 nM
CCN1CCC=C(c2c[nH]c3ccc(Br)cc23)C1 | 24 nM | 125 nM
CCN1CCC=C(c2c[nH]c3ccc(C)cc23)C1 | 42 nM | 246 nM
CN1CCC=C(c2c[nH]c3ccccc23)C1 | 261 nM | 139 nM
CCN1CCC=C(c2c[nH]c3ccc(OC)cc23)C1 | 71 nM | 1130 nM
CCN1CCC=C(c2c[nH]c3ccccc23)C1 | 213 nM | 165 nM
